Measurements published in patent US20030027141A1, “Combinatorial oligonucleotide PCR: a method for rapid, global expression analysis” (Board of Regents, The University of Texas System, priority 1999, published 2003).

Key:
[1] = test system: HME87 line of normal human mammary epithelial cells; experiment: COP analysis of gene expression after carcinogen (BPDE) treatment; format: cell-based
[2] = test system: HME87 line of normal human mammary epithelial cells; experiment: DNA damage in BPDE-treated cells; format: cell-based; conditions: 30 min BPDE treatment
Experimental: Control cultures were treated with tetrahydrofuran only.

[3] = test system: HME87 line of normal human mammary epithelial cells; experiment: Cell cycle parameters after BPDE treatment; format: cell-based
Experimental: Data for several genes whose expression did change at one or more time points is listed in Table 11 with two prominent examples shown in FIG. 20. The most dramatic change was in the expression of the transcription factor ATF3, which increased 8-9 fold at 4 and 10 h, then dropped to a 2.4-fold increase at 24 h. Changes in ATF3 expression in response to damage induced by BPDE or related compounds have not previously been described, and it will be very interesting to determine both the mechanism and the consequences of this induction. The p21/WAF1 gene, a downstream target of p53, is a mediator of G1 arrest in response to DNA damage (Levine, 1997). […] Thus, the COP analyses performed in this system have given a variety of clues concerning mechanisms operative in cells soon after BPDE treatment.

[4] = test system: HME87 line of normal human mammary epithelial cells; conditions: 30 min BPDE treatment; for at least 48 h
[5] = at one or more time points after BPDE treatment

With OC1c2cc3ccc4cccc5ccc(c2C2OC2C1O)c3c45 (racemic) [BPDE, ±7r,8t-dihydroxy-9,10t-epoxy-7,8,9,10-tetrahydro-benzo[a]pyrene] the “ACTB expression E/C” value ([1]; 4 h after BPDE treatment) was 1.1 ± 0.2, the “ATF3 expression E/C” value ([1]; 4 h after BPDE treatment) was 7.8 ± 4.0 and the “Beclin expression E/C” value ([1]; 4 h after BPDE treatment) was 2.1 ± 1.4. For the same molecule, the “CEBPE expression E/C” value ([1]; 4 h after BPDE treatment) was 0.9 ± 0.3, the “GADD45 expression E/C” value ([1]; 4 h after BPDE treatment) was 2.1 ± 0.7 and the “LMNA expression E/C” value ([1]; 4 h after BPDE treatment) was 0.7 ± 0.2. The “RPL23a expression E/C” value ([1]; 4 h after BPDE treatment) was 0.6 ± 0.1, the “RPL30 expression E/C” value ([1]; 4 h after BPDE treatment) was 0.8 ± 0.1 and the “RPL35 expression E/C” value ([1]; 4 h after BPDE treatment) was 1.2 ± 0.3. The “RPP1 expression E/C” value ([1]; 4 h after BPDE treatment) was 1.4 ± 0.1, the “RPS7 expression E/C” value ([1]; 4 h after BPDE treatment) was 1.1 ± 0.2 and the “RPS15a expression E/C” value ([1]; 4 h after BPDE treatment) was 1.0 ± 0.3. For the same molecule, the “RPS26 expression E/C” value ([1]; 4 h after BPDE treatment) was 1.2 ± 0.3, the “RPS29 expression E/C” value ([1]; 4 h after BPDE treatment) was 1.1 ± 0.2 and the “TP53 expression E/C” value ([1]; 4 h after BPDE treatment) was 1.1 ± 0.4. The “p21 expression E/C” value ([1]; 4 h after BPDE treatment) was 1.0 ± 0.1, the “RPS27 expression E/C” value ([1]; 4 h after BPDE treatment, E=BPDE, C=solvent only) was 0.9 ± 0.3 and the “ACTB expression E/C” value ([1]; 10 h after BPDE treatment) was 0.9 ± 0.2. For the same molecule, the “ATF3 expression E/C” value ([1]; 10 h after BPDE treatment) was 9.2 ± 3.9, the “BTF3 expression E/C” value ([1]; 10 h after BPDE treatment) was 1.0 ± 0.2 and the “Beclin expression E/C” value ([1]; 10 h after BPDE treatment) was 2.0 ± 1.1. For the same molecule, the “GADD45 expression E/C” value ([1]; 10 h after BPDE treatment) was 1.9 ± 0.7, the “LMNA expression E/C” value ([1]; 10 h after BPDE treatment) was 1.1 ± 0.3 and the “PGK expression E/C” value ([1]; 10 h after BPDE treatment) was 1.0 ± 0.2. For the same molecule, the “RPL23a expression E/C” value ([1]; 10 h after BPDE treatment) was 1.1 ± 0.3, the “RPL30 expression E/C” value ([1]; 10 h after BPDE treatment) was 1.0 ± 0.1 and the “RPL35 expression E/C” value ([1]; 10 h after BPDE treatment) was 1.1 ± 0.4. For the same molecule, the “RPP1 expression E/C” value ([1]; 10 h after BPDE treatment) was 1.0 ± 0.4, the “RPS7 expression E/C” value ([1]; 10 h after BPDE treatment) was 1.4 ± 0.5 and the “RPS15a expression E/C” value ([1]; 10 h after BPDE treatment) was 1.4 ± 0.6. For the same molecule, the “RPS16 expression E/C” value ([1]; 10 h after BPDE treatment) was 0.8 ± 0.1, the “RPS26 expression E/C” value ([1]; 10 h after BPDE treatment) was 1.3 ± 0.5 and the “RPS27 expression E/C” value ([1]; 10 h after BPDE treatment) was 1.2 ± 0.4. For the same molecule, the “RPS29 expression E/C” value ([1]; 10 h after BPDE treatment) was 1.3 ± 0.6, the “TP53 expression E/C” value ([1]; 10 h after BPDE treatment) was 0.9 ± 0.1 and the “p21 expression E/C” value ([1]; 10 h after BPDE treatment) was 1.1 ± 0.2. The “ACTB expression E/C” value ([1]; 24 h after BPDE treatment) was 1.3 ± 0.4, the “ATF3 expression E/C” value ([1]; 24 h after BPDE treatment) was 2.4 ± 0.7 and the “BTF3 expression E/C” value ([1]; 24 h after BPDE treatment) was 0.9 ± 0.2. The “CEBPE expression E/C” value ([1]; 24 h after BPDE treatment) was 1.0 ± 0.3, the “GADD45 expression E/C” value ([1]; 24 h after BPDE treatment) was 0.8 ± 0.4 and the “IMPD expression E/C” value ([1]; 24 h after BPDE treatment) was 0.8 ± 0.2. The “LMNA expression E/C” value ([1]; 24 h after BPDE treatment) was 0.9 ± 0.3, the “MYC expression E/C” value ([1]; 24 h after BPDE treatment) was 1.2 ± 0.5 and the “NFKB expression E/C” value ([1]; 24 h after BPDE treatment) was 1.5 ± 0.4. For the same molecule, the “PGK expression E/C” value ([1]; 24 h after BPDE treatment) was 1.1 ± 0.2, the “RPL23a expression E/C” value ([1]; 24 h after BPDE treatment) was 1.0 ± 0.2 and the “RPL30 expression E/C” value ([1]; 24 h after BPDE treatment) was 1.0 ± 0.2. For the same molecule, the “RPL35 expression E/C” value ([1]; 24 h after BPDE treatment) was 1.2 ± 0.6, the “RPP1 expression E/C” value ([1]; 24 h after BPDE treatment) was 1.7 ± 1.0 and the “RPS7 expression E/C” value ([1]; 24 h after BPDE treatment) was 1.7 ± 0.8. The “RPS15a expression E/C” value ([1]; 24 h after BPDE treatment) was 1.2 ± 0.3, the “RPS16 expression E/C” value ([1]; 24 h after BPDE treatment) was 0.9 ± 0.2 and the “RPS26 expression E/C” value ([1]; 24 h after BPDE treatment) was 1.5 ± 0.6. The “RPS27 expression E/C” value ([1]; 24 h after BPDE treatment) was 0.9 ± 0.2, the “RPS29 expression E/C” value ([1]; 24 h after BPDE treatment) was 1.7 ± 1.2 and the “SL1 expression E/C” value ([1]; 24 h after BPDE treatment) was 1.0 ± 0.3. For the same molecule, the “TP53 expression E/C” value ([1]; 24 h after BPDE treatment) was 0.8 ± 0.3, the “p21 expression E/C” value ([1]; 24 h after BPDE treatment) was 2.3 ± 0.7 and the “increase in expression of transcription factor ATF3” value ([1]; at 4 and 10 h after BPDE treatment) was 8-9 fold. The “increase in expression of transcription factor ATF3” value ([1]; at 24 h after BPDE treatment) was 2.4 fold, the “increase of p21/WAF1 gene expression” value ([1]; at 24 h after BPDE treatment) was “about 2 fold” and the “expression of beclin (protein related to apoptosis)” value [1, 5] was “upregulated”. For the same molecule, the “expression of transcription factor CP2” value [1, 5] was “upregulated”, the “induction of p21/WAF1 gene” value ([1]; early times after BPDE treatment) was “not induced” and the “expression of the majority of over 450 genes analyzed” value ([1]; one or more time points after BPDE treatment) was “no significant changes in expression”. For the same molecule, the “DNA damage in the treated cells” value [2] was “induces a high level of DNA damage”, the G1 arrest ([3]; 4 and 10 h after BPDE treatment) was “no G1 arrest” and the G1 arrest ([3]; by 24 h after BPDE treatment) was “appear to be a G1 arrest”. The toxicity of treatment [4] was “not demonstrably toxic”.
